Experimental data taken from US20100298141A1, “SUBSTITUTED PYRIDINE N-OXIDE HERBICIDES” (E. I. DU PONT DE NEMOURS AND COMPANY, priority 2007, published 2010).

Key:
Experiment in all cases: Test F preemergence test
pitted morningglory = format: in vivo, Ipomoea lacunosa; details: scale 0 to 100
Description: (§1) Seeds of plant species selected from bermudagrass (Cynodon dactylon), Surinam grass (Brachiaria decumbens), large crabgrass (Digitaria sanguinalis), green foxtail (Setaria viridis), goosegrass (Eleusine indica), johnsongrass (Sorghum halepense), kochia (Kochia scoparia), pitted morningglory (Ipomoea lacunosa), purple nutsedge (Cyperus rotundus), common ragweed (Ambrosia elation), mustard (Brassica nigra), guineagrass (Panicum maximum), […] (Paspalum dilatatum), barnyardgrass (Echinochloa crus-galli), southern sandbur (Cenchrus echinatus), common sowthistle (Sonchus oleraceous), prickly […] spinosa), Italian ryegrass (Lolium multiflorum), common purslane (Portulaca oleracea), broadleaf signalgrass (Brachiaria platyphylla), common groundsel (Senecio vulgaris), common chickweed (Stellaria media), Virginia dayflower (Commelina virginica), annual bluegrass (Poa annua), naked crabgrass (Digitaria nuda), […] cochinchinensis), quackgrass (Elytrigia repens), Canada horseweed (Conyza canadensis), field bindweed (Convolvulus arvensis), […] (Bidens bipinnata), common mallow (Malva sylvestris), Russian thistle (Salsola kali), and sugarcane (Saccharum officinarum) were planted and treated preemergence with test chemicals formulated in a non-phytotoxic solvent mixture which included a surfactant. At a different time, sugarcane was treated with postemergence applications of some of the test chemicals formulated in the same manner. Plants were approximately 3- to 4-leaf stage for the postemergence treatments. Treated plants and controls were maintained in a greenhouse for 14 to 21 days, after which time all species were compared to controls and visually evaluated. […] A dash (-) response means no test result.

kochia = format: in vivo, Kochia scoparia; details: scale 0 to 100
Description: as §1

prickly sida = format: in vivo, Sida spinosa; details: scale 0 to 100
Description: as §1

mustard = format: in vivo, Brassica nigra; details: scale 0 to 100
Description: as §1

annual bluegrass = format: in vivo, Poa annua; details: scale 0 to 100
Description: as §1

purple nutsedge = format: in vivo, Cyperus rotundus; details: scale 0 to 100
Description: as §1

barnyardgrass = format: in vivo, Echinochloa crus-galli
Description: as §1

broadleaf signalgrass = format: in vivo, Brachiaria platyphylla; details: scale 0 to 100
Description: as §1

dallisgrass = format: in vivo, Paspalum dilatatum; details: scale 0 to 100
Description: as §1

bermudagrass = format: in vivo, Cynodon dactylon; details: scale 0 to 100
Description: as §1

Virginia dayflower = format: in vivo, Commelina virginica; details: scale 0 to 100
Description: as §1

common groundsel = format: in vivo, Senecio vulgaris; details: 125 g ai/ha, preemergence, scale 0 to 100
Description: as §1

common mallow = format: in vivo, Malva sylvestris; details: scale 0 to 100
Description: as §1

guineagrass = format: in vivo, Panicum maximum; details: scale 0 to 100
Description: as §1

naked crabgrass = format: in vivo, Digitaria nuda; details: scale 0 to 100
Description: as §1

quackgrass = format: in vivo, Elytrigia repens; details: scale 0 to 100
Description: as §1

common purslane = format: in vivo, Portulaca oleracea; details: scale 0 to 100
Description: as §1

Cc1cc[n+]([O-])c(S(=O)(=O)Cc2c(C(F)(F)F)nn(C)c2OCC(F)(F)F)c1 [Compound 31]
50: Plant response rating, Purple Nutsedge (purple nutsedge; Preemergence, 31 g ai/ha) | Plant response rating, Barnyardgrass (barnyardgrass; 16 g ai/ha, preemergence, scale 0 to 100 (0 no effect, 100 complete control))
25: Plant response rating, Purslane (common purslane; 16 g ai/ha, preemergence)
20: Plant response rating, Morningglory (pitted morningglory; Preemergence, 31 g ai/ha) | Plant response rating, Bermudagrass (bermudagrass; 16 g ai/ha, preemergence)
60: Morningglory plant response rating (pitted morningglory; 62 g ai/ha, Preemergence) | Plant response rating, Signalgrass (broadleaf signalgrass; Preemergence, 31 g ai/ha) | Plant response rating, Dallisgrass (dallisgrass; Preemergence, 31 g ai/ha)
75: Plant response rating, Prickly Sida (prickly sida; Preemergence, 31 g ai/ha) | Bluegrass plant response rating (annual bluegrass; 62 g ai/ha, Preemergence) | Plant response rating, Bermudagrass (bermudagrass; Preemergence, 31 g ai/ha) | Plant response rating, Crabgrass, Naked (naked crabgrass; 16 g ai/ha, preemergence) | Quackgrass plant response rating (quackgrass; 62 g ai/ha, Preemergence)
90: Bluegrass plant response rating (annual bluegrass; 125 g ai/ha, preemergence) | Plant response rating, Signalgrass (broadleaf signalgrass; Preemergence, 62 g ai/ha)
40: Plant response rating, Prickly Sida (prickly sida; 16 g ai/ha, preemergence) | Plant response rating, Black Mustard (mustard; 16 g ai/ha, preemergence) | Plant response rating, Purple Nutsedge (purple nutsedge; 16 g ai/ha, preemergence) | Purslane plant response rating (common purslane; 62 g ai/ha, Preemergence)
70: Purple Nutsedge plant response rating (purple nutsedge; 62 g ai/ha, Preemergence)
30: Plant response rating, Dayflower (Virginia dayflower; 16 g ai/ha, preemergence)
80: Prickly Sida plant response rating (prickly sida; 62 g ai/ha, Preemergence) | Plant response rating, Guineagrass (guineagrass; 16 g ai/ha, preemergence)
98: Morningglory plant response rating (pitted morningglory; 125 g ai/ha, preemergence) | Signalgrass plant response rating (broadleaf signalgrass; 125 g ai/ha, preemergence)
0: Plant response rating, Morningglory (pitted morningglory; 16 g ai/ha, preemergence) | Plant response rating, Kochia (kochia; 16 g ai/ha, preemergence) | Plant response rating, Kochia (kochia; Preemergence, 31 g ai/ha) | Plant response rating, Mallow (common mallow; 16 g ai/ha, preemergence)
35: Plant response rating, Bluegrass (annual bluegrass; 16 g ai/ha, preemergence) | Plant response rating, Signalgrass (broadleaf signalgrass; 16 g ai/ha, preemergence) | Plant response rating, Dallisgrass (dallisgrass; 16 g ai/ha, preemergence)
15: Plant response rating, Quackgrass (quackgrass; 16 g ai/ha, preemergence)
95: Plant response rating, Black Mustard (mustard; Preemergence, 31 g ai/ha) | Plant response rating, Barnyardgrass (barnyardgrass; Preemergence, 31 g ai/ha, scale 0 to 100) | Dallisgrass plant response rating (dallisgrass; 62 g ai/ha, Preemergence) | Quackgrass plant response rating (quackgrass; 125 g ai/ha, preemergence)
65: Kochia plant response rating (kochia; 62 g ai/ha, Preemergence) | Plant response rating, Bluegrass (annual bluegrass; Preemergence, 31 g ai/ha) | Plant response rating, Dayflower (Virginia dayflower; Preemergence, 31 g ai/ha) | Plant response rating, Quackgrass (quackgrass; Preemergence, 31 g ai/ha) | Purslane plant response rating (common purslane; 125 g ai/ha, preemergence)
85: Plant response rating, Crabgrass, Naked (naked crabgrass; Preemergence, 31 g ai/ha)
100: Kochia plant response rating (kochia; 125 g ai/ha, preemergence) | Prickly Sida plant response rating (prickly sida; 125 g ai/ha, preemergence) | Black Mustard plant response rating (mustard; 62 g ai/ha, Preemergence) | Black Mustard plant response rating (mustard; 125 g ai/ha, preemergence) | Purple Nutsedge plant response rating (purple nutsedge; 125 g ai/ha, preemergence) | Barnyardgrass plant response rating (barnyardgrass; 62 g ai/ha, Preemergence, scale 0 to 100) | Barnyardgrass plant response rating (barnyardgrass; 125 g ai/ha, preemergence, scale 0 to 100) | Dallisgrass plant response rating (dallisgrass; 125 g ai/ha, preemergence) | Bermudagrass plant response rating (bermudagrass; 62 g ai/ha, Preemergence) | Bermudagrass plant response rating (bermudagrass; 125 g ai/ha, preemergence) | Dayflower plant response rating (Virginia dayflower; 62 g ai/ha, Preemergence) | Dayflower plant response rating (Virginia dayflower; 125 g ai/ha, preemergence) | Groundsel plant response rating (common groundsel) | Mallow plant response rating (common mallow; 62 g ai/ha, Preemergence) | Mallow plant response rating (common mallow; 125 g ai/ha, preemergence) | Plant response rating, Mallow (common mallow; Preemergence, 31 g ai/ha) | Guineagrass plant response rating (guineagrass; 62 g ai/ha, Preemergence) | Guineagrass plant response rating (guineagrass; 125 g ai/ha, preemergence) | Plant response rating, Guineagrass (guineagrass; Preemergence, 31 g ai/ha) | Crabgrass, Naked plant response rating (naked crabgrass; 62 g ai/ha, Preemergence) | Crabgrass, Naked plant response rating (naked crabgrass; 125 g ai/ha, preemergence)
